How the values were obtained:
[1] = target: full-length activated BTK mutant C481S (Homo sapiens (Human), UniProt Q06187, C481S); assay: AlphaScreen assay, BTK mutant C481S; type: biochemical
Method: (§1) The activated BTK was frozen in 50 μl aliquots (125-150 μg/ml).
(§2) BTK activity was assayed using a PLCγ2-derived biotinylated peptide substrate (biotin-[…]-OH) and AlphaScreen™ (Amplified Luminescent Proximity Homogeneous Assay) technology. The extent of peptide phosphorylation was determined by using acceptor beads conjugated to phosphotyrosine antibody that recognized the phosphorylated peptide and donor beads conjugated to streptavidin that binds to the biotin on the peptide. Excitation of the donor beads converted ambient oxygen to excited singlet oxygen which when in close proximity to acceptor beads, reacted with acceptor beads resulting in signal amplification.
(§3) Test inhibitors and controls were prepared in 10% DMSO at 10-fold the desired final concentration and added to each well of a reaction plate (Corning 96-well half-area solid white nonbinding surface plate) in a volume of 2.5 μl. […] The plate was incubated for 120 min at room temperature and the reaction stopped by the addition of 10 μl stop/detection mixture containing 35 mM EDTA, 50 ug/ml AlphaScreen™ Streptavidin Donor beads (final concentration is 500 ng/well) and AlphaScreen™ Phospho-tyrosine (P-Tyr-100) Acceptor beads (final concentration is 500 ng/well) under green light conditions. The plate was incubated overnight at room temperature in the dark and the plates read on the BMG PolarStar Omega ([…], Gain=4000). Data were archived and analyzed with a 4-parameter fit to generate IC50 values using the CDD Vault from Collaborative Drug Discovery.

[2] = target: full-length activated BTK (wildtype) (Homo sapiens (Human), UniProt Q06187); assay: AlphaScreen assay, wild-type BTK; type: biochemical
Sequence of full-length activated BTK (wildtype) (Q06187 whole entry): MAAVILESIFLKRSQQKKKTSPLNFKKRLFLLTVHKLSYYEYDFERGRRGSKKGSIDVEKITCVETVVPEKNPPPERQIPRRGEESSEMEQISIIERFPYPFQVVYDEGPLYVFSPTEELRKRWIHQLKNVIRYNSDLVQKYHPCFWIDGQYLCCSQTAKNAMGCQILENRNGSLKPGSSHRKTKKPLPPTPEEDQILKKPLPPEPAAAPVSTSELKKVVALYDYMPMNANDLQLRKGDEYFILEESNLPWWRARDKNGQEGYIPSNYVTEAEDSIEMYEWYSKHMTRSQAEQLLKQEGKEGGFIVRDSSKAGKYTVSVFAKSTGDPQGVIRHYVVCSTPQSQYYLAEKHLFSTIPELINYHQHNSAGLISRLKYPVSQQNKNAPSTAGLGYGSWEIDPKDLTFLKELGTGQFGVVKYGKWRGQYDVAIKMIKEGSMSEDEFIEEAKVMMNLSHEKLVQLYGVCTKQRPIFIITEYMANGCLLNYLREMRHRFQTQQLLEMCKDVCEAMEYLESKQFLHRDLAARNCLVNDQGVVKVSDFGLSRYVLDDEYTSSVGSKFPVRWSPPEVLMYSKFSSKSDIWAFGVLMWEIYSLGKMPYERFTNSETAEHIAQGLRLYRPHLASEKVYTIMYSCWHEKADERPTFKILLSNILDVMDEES
Method: as §1, §2, §3

Sequence of full-length activated BTK mutant C481S (Q06187 whole entry C481S): as the sequence (Q06187 whole entry) above, with C481S counted along it

IC50 [1]	IC50 [2]	inhibition at 10 µM ([1]; read-out: BTK-C481S % @ 10 uM, @ 10 uM)	Structure (SMILES)
0.179 µM	0.0045 µM		C=CC(=O)N1CCCC(Nc2ncnc3[nH]cc(C(=O)c4ccc(Oc5ccccc5)cc4Cl)c23)C1 (racemic) [Compound I-321r, (racemic)-1-(3-((5-(2-chloro-4-phenoxybenzoyl)-7H-pyrrolo[2,3-d]pyrimidin-4-yl)amino)piperidin-1-yl)prop-2-en-1-one]
0.0986 µM	0.0104 µM		C=CS(=O)(=O)N1CCCC(Nc2ncnc3[nH]cc(C(=O)c4ccc(Oc5ccccc5)cc4Cl)c23)C1 (racemic) [Compound I-322r, (racemic)-(2-chloro-4-phenoxyphenyl)(4-((1-(vinylsulfonyl)piperidin-3-yl)amino)-7H-pyrrolo[2,3-d]pyrimidin-5-yl)methanone]
0.105 µM	0.0172 µM		CC#CC(=O)N1CCCC(Nc2ncnc3[nH]cc(C(=O)c4ccc(Oc5ccccc5)cc4Cl)c23)C1 (racemic) [Compound I-324r, (racemic)-1-(3-((5-(2-chloro-4-phenoxybenzoyl)-7H-pyrrolo[2,3-d]pyrimidin-4-yl)amino)piperidin-1-yl)but-2-yn-1-one]
0.136 µM	0.00098 µM		C=CC(=O)N1CCCC1CNc1ncnc2[nH]cc(C(=O)c3ccc(Oc4ccccc4)cc3Cl)c12 (racemic) [Compound I-325r, (racemic)-1-(2-(((5-(2-chloro-4-phenoxybenzoyl)-7H-pyrrolo[2,3-d]pyrimidin-4-yl)amino)methyl)pyrrolidin-1-yl)prop-2-en-1-one]
0.419 µM	0.00433 µM		C=CS(=O)(=O)N1CCCC1CNc1ncnc2[nH]cc(C(=O)c3ccc(Oc4ccccc4)cc3Cl)c12 (racemic) [Compound I-326r, (racemic)-(2-chloro-4-phenoxyphenyl)(4-(((1-(vinylsulfonyl)pyrrolidin-2-yl)methyl)amino)-7H-pyrrolo[2,3-d]pyrimidin-5-yl)methanone]
0.0184 µM	0.00098 µM		CC#CC(=O)N1CCCC1CNc1ncnc2[nH]cc(C(=O)c3ccc(Oc4ccccc4)cc3Cl)c12 (racemic) [Compound I-328r, (racemic)-1-(2-(((5-(2-chloro-4-phenoxybenzoyl)-7H-pyrrolo[2,3-d]pyrimidin-4-yl)amino)methyl)pyrrolidin-1-yl)but-2-yn-1-one]
0.034 µM	0.011 µM		O=C(c1ccc(Oc2ccccc2)cc1Cl)c1c[nH]c2ncnc(NC3CCC(CO)NC3)c12 (racemic) [Compound I-343r, rac-(2-chloro-4-phenoxyphenyl)(4-((6-(hydroxymethyl)piperidin-3-yl)amino)-7H-pyrrolo[2,3-d]pyrimidin-5-yl)methanone]
0.124 µM	0.0294 µM		O=C(c1ccc(Oc2ccccc2)cc1Cl)c1c[nH]c2ncnc(NC[C@H]3CCC[C@@H](CO)N3)c12 (racemic) [Compound I-359e, racemic-cis-(2-chloro-4-phenoxyphenyl)(4-(((6-(hydroxymethyl)piperidin-2-yl)methyl)amino)-7H-pyrrolo[2,3-d]pyrimidin-5-yl)methanone]
0.0594 µM	0.00107 µM		CN1[C@H](CO)CCC[C@@H]1CNc1ncnc2[nH]cc(C(=O)c3ccc(Oc4ccccc4)cc3Cl)c12 (racemic) [Compound I-360e, racemic-cis-(2-chloro-4-phenoxyphenyl)(4-(((6-(hydroxymethyl)-1-methylpiperidin-2-yl)methyl)amino)-7H-pyrrolo[2,3-d]pyrimidin-5-yl)methanone]
0.0388 µM	0.01 µM		CS(=O)(=O)N1CC(Nc2ncnc3[nH]cc(C(=O)c4ccc(Oc5ccccc5)cc4Cl)c23)CCC1CO (racemic) [Compound I-653, (racemic)-(2-chloro-4-phenoxyphenyl)(4-((6-(hydroxymethyl)-1-(methylsulfonyl)piperidin-3-yl)amino)-7H-pyrrolo[2,3-d]pyrimidin-5-yl)methanone]
0.0207 µM	0.00655 µM		CC(=O)N1CC(Nc2ncnc3[nH]cc(C(=O)c4ccc(Oc5ccccc5)cc4Cl)c23)CCC1CO (racemic) [Compound I-654, rac-1-(5-((5-(2-chloro-4-phenoxybenzoyl)-7H-pyrrolo[2,3-d]pyrimidin-4-yl)amino)-2-(hydroxymethyl)-piperidin-1-yl)ethan-1-one]
0.0334 µM	0.0142 µM		CN1C[C@H](Nc2ncnc3[nH]cc(C(=O)c4ccc(Oc5ccccc5)cc4Cl)c23)C[C@H]1CO [Compound I-342e, (2-chloro-4-phenoxyphenyl)(4-(((3R,5S)-5-(hydroxymethyl)-1-methylpyrrolidin-3-yl)amino)-7H-pyrrolo[2,3-d]pyrimidin-5-yl)methanone]
0.0445 µM	0.0356 µM		O=C(c1ccc(Oc2ccccc2)cc1Cl)c1c[nH]c2ncnc(NC[C@H]3CC[C@@H](CO)O3)c12 [Compound I-362e, (2-chloro-4-phenoxyphenyl)(4-((((2R,5S)-5-(hydroxymethyl)tetrahydrofuran-2-yl)methyl)amino)-7H-pyrrolo[2,3-d]pyrimidin-5-yl)methanone]

Continued, compound first:

Structure (SMILES)	IC50 [1]	IC50 [2]	inhibition at 10 µM ([1]; read-out: BTK-C481S % @ 10 uM, @ 10 uM)
O=C(Nc1ccccc1)c1ccc(C(=O)c2c[nH]c3ncnc(N[C@@H]4CC[C@@H](CO)OC4)c23)cc1 [Compound I-231, 4-(4-(((3R,6S)-6-(hydroxymethyl)tetrahydro-2H-pyran-3-yl)amino)-7H-pyrrolo[2,3-d]pyrimidine-5-carbonyl)-N-phenylbenzamide]	0.248 µM	0.318 µM	
O=C(Nc1ccccc1)c1ccc(C(=O)c2c[nH]c3ncnc(N[C@@H]4CC[C@@H](CO)OC4)c23)c(Cl)c1 [Compound I-236, 3-chloro-4-(4-(((3R,6S)-6-(hydroxymethyl)tetrahydro-2H-pyran-3-yl)amino)-7H-pyrrolo[2,3-d]pyrimidine-5-carbonyl)-N-phenylbenzamide]	0.0984 µM	0.181 µM	
O=C(Nc1ccncc1)c1ccc(C(=O)c2c[nH]c3ncnc(N[C@@H]4CC[C@@H](CO)OC4)c23)c(Cl)c1 [Compound I-246, 3-chloro-4-(4-(((3R,6S)-6-(hydroxymethyl)tetrahydro-2H-pyran-3-yl)amino)-7H-pyrrolo[2,3-d]pyrimidine-5-carbonyl)-N-(pyridin-4-yl)benzamide]	0.514 µM	0.103 µM	
O=C(Nc1cccnc1)c1ccc(C(=O)c2c[nH]c3ncnc(N[C@@H]4CC[C@@H](CO)OC4)c23)c(Cl)c1 [Compound I-256, 3-chloro-4-(4-(((3R,6S)-6-(hydroxymethyl)tetrahydro-2H-pyran-3-yl)amino)-7H-pyrrolo[2,3-d]pyrimidine-5-carbonyl)-N-(pyridin-3-yl)benzamide]	0.317 µM	0.156 µM	
O=C(Nc1ccc(C(=O)c2c[nH]c3ncnc(N[C@@H]4CC[C@@H](CO)OC4)c23)c(Cl)c1)c1ccccc1 [Compound I-276, N-(3-chloro-4-(4-(((3R,6S)-6-(hydroxymethyl)tetrahydro-2H-pyran-3-yl)amino)-7H-pyrrolo[2,3-d]pyrimidine-5-carbonyl)phenyl)benzamide]	0.058 µM	0.0176 µM	
O=C(c1ccc(N2CCOCC2)cc1Cl)c1c[nH]c2ncnc(N[C@@H]3CC[C@@H](CO)OC3)c12 [Compound I-311i, (2-chloro-4-morpholinophenyl)(4-(((3R,6S)-6-(hydroxymethyl)tetrahydro-2H-pyran-3-yl)amino)-7H-pyrrolo[2,3-d]pyrimidin-5-yl)methanone]		0.867 µM	81%
COCCOc1ccc(C(=O)c2c[nH]c3ncnc(N[C@@H]4CC[C@@H](CO)OC4)c23)c(Cl)c1 [Compound I-317i, (2-chloro-4-(2-methoxyethoxy)phenyl)(4-(((3R,6S)-6-(hydroxymethyl)tetrahydro-2H-pyran-3-yl)amino)-7H-pyrrolo[2,3-d]pyrimidin-5-yl)methanone]	0.156 µM	0.0407 µM	
COCCOc1ccc(C(=O)c2c[nH]c3ncnc(N[C@@H]4CC[C@@H](CO)OC4)c23)cc1 [Compound I-318i, (4-(((3R,6S)-6-(hydroxymethyl)tetrahydro-2H-pyran-3-yl)amino)-7H-pyrrolo[2,3-d]pyrimidin-5-yl)(4-(2-methoxyethoxy)phenyl)methanone]	0.714 µM	0.423 µM	
CNC(=O)c1cccc(Oc2ccc(C(=O)c3c[nH]c4ncnc(N[C@@H]5CC[C@@H](CO)OC5)c34)c(Cl)c2)n1 [Compound I-319, 6-(3-chloro-4-(4-(((3R,6S)-6-(hydroxymethyl)tetrahydro-2H-pyran-3-yl)amino)-7H-pyrrolo[2,3-d]pyrimidine-5-carbonyl)phenoxy)-N-methyl picolinamide]	0.127 µM	0.444 µM	
CNC(=O)c1cccc(Oc2ccc(C(=O)c3c[nH]c4ncnc(N[C@@H]5CC[C@@H](CO)OC5)c34)cc2)n1 [Compound I-320, 6-(4-(4-(((3R,6S)-6-(hydroxymethyl)tetrahydro-2H-pyran-3-yl)amino)-7H-pyrrolo[2,3-d]pyrimidine-5-carbonyl)phenoxy)-N-methylpicolinamide]	0.0631 µM	0.336 µM	
O=C(c1ccc(Oc2ccccc2)cc1Cl)c1c[nH]c2ncnc(N[C@H]3CN[C@H](CO)C3)c12 [Compound I-345e, (2-chloro-4-phenoxyphenyl)(4-(((3R,5S)-5-(hydroxymethyl)pyrrolidin-3-yl)amino)-7H-pyrrolo[2,3-d]pyrimidin-5-yl)methanone]	0.0682 µM	0.0101 µM	

Source: US11020398B2, “Amino-pyrrolopyrimidinone compounds and methods of use thereof” (ArQule, Inc., priority 2016, dated 2021)
